Test results from ChEMBL document CHEMBL1201862, “PubChem BioAssay data set” (2004).
Calls of active or inactive are those of the source.

Assays:
[1] = target: T1, Short transient receptor potential channel 4 (Mus musculus, UniProt Q9QUQ5); assay: mouse TRPC4 channel activators, dose response, cell-based, HEK293 TRPC4/mu-opioid, Fluo-4 calcium (AID 434937); assay type: functional
T1 sequence (Q9QUQ5 whole entry): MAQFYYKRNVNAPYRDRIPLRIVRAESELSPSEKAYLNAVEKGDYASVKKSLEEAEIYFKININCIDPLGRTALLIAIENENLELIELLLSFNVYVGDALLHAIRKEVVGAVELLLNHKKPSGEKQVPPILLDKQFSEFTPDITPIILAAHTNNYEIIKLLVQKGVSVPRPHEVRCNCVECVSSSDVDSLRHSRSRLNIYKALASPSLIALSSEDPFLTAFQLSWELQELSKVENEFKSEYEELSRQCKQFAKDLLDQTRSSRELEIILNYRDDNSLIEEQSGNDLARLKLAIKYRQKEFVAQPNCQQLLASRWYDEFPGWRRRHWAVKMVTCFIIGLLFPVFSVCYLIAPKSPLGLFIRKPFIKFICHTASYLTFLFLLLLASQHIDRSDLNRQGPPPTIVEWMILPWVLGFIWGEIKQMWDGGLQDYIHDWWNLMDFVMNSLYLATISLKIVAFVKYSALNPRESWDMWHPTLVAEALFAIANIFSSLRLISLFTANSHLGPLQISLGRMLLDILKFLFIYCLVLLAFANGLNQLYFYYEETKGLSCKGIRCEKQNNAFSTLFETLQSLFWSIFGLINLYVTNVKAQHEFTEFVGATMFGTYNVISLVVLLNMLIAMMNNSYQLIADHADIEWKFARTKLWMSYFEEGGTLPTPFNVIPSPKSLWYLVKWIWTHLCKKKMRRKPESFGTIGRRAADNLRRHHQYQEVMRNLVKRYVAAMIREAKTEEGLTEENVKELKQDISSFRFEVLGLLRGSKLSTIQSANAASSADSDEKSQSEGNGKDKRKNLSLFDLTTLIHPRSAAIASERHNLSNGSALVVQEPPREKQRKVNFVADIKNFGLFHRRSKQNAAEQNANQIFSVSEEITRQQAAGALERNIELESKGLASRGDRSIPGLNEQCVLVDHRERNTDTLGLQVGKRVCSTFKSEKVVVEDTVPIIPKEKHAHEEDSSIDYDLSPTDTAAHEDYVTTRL

Coagulation factor XII = target: T2, Coagulation factor XII (Homo sapiens, UniProt P00748); assay type: functional;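 note: activated factor XIIa alpha cleaving a fluorogenic AMC peptide substrate; inhibitor potency from loss of enzyme activity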
T2 sequence (P00748 whole entry): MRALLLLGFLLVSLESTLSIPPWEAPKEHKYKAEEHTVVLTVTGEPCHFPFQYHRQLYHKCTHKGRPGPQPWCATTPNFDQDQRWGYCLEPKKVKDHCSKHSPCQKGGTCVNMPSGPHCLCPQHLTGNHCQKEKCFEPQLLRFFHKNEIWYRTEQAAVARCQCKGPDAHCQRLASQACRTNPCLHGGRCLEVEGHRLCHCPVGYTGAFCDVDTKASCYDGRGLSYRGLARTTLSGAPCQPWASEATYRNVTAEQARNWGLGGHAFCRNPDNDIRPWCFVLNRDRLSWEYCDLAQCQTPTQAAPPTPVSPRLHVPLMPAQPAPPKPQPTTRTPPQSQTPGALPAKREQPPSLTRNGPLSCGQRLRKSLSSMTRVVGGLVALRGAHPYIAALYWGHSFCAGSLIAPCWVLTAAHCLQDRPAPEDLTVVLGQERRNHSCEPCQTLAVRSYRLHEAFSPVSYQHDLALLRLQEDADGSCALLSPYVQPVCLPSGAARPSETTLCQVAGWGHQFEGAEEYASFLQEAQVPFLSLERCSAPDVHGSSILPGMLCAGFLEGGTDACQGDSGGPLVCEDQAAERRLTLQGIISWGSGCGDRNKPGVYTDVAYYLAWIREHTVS

[2] = Luminescence Cell-Based Dose Confirmation HTS to Identify Inhibitors of Platelet Dense Granule Release. [Related pubchem assays: 1663 (Primary HTS), 1678 (Summary of Project)]; assay type: functional
[3] = target: Luciferin 4-monooxygenase (Photinus pyralis, UniProt P08659); assay: firefly luciferase enzyme inhibitors, dose response, biochemical, luminescence (AID 1891)
[4] = cytotoxicity in HEK-293T cells, dose response, cytotoxicity control for BCR NF-kB inhibitor project, luminescence, B-cell screen hits (AID 489021); assay type: functional, cell-based;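 note: HEK-293T cells carrying an NF-kB luciferase reporter; cells exposed to compound for about 14 hours before viability readout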
Leucine aminopeptidase = target: T3, Leucine aminopeptidase (Plasmodium falciparum 3D7, UniProt Q8IL11); assay: P. falciparum M17LAP inhibitors, primary screen, biochemical, fluorogenic H-Leu-NHMec substrate, 1536-well (AID 1619); assay type: functional
T3 sequence (Q8IL11 whole entry): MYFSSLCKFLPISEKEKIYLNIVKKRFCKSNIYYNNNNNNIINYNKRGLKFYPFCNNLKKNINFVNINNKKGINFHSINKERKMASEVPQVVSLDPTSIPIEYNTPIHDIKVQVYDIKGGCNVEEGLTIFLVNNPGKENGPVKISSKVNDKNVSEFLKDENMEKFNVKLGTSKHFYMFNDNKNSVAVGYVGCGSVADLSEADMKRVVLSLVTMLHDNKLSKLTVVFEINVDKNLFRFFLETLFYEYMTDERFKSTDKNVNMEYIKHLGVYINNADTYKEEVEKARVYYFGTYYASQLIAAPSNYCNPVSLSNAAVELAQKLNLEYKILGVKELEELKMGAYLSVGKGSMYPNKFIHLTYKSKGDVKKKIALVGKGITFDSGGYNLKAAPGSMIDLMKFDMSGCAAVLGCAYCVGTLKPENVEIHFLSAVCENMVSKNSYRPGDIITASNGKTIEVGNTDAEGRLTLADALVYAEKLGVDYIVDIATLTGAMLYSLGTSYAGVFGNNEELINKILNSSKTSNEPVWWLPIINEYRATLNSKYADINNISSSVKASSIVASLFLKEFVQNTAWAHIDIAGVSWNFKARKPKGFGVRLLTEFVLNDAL

[5] = target: T4, Microphthalmia-associated transcription factor (Homo sapiens, UniProt O75030); assay: TRPM1 promoter luciferase signal decrease, dose response, MITF inhibitor project, cell-based, SK-MEL-5, cherry-picked, set 3 (AID 493073); assay type: functional
T4 sequence (O75030 whole entry): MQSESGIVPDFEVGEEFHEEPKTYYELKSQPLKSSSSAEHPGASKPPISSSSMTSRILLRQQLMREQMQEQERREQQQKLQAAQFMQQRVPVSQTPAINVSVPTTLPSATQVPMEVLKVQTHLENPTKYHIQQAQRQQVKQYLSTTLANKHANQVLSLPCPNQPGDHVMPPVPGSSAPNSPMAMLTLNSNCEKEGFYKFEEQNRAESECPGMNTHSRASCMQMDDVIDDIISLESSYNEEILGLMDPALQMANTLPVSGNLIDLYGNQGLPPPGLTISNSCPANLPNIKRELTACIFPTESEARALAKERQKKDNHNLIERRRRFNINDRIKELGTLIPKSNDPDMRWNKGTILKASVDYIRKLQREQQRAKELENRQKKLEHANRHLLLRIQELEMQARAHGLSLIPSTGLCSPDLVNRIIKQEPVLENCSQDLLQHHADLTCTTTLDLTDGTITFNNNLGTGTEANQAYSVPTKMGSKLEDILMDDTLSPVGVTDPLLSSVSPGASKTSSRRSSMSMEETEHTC

[6] = target: Induced myeloid leukemia cell differentiation protein Mcl-1 (Homo sapiens, UniProt Q07820); assay type: functional
[7] = Luminescence Cell-Based Dose Response HTS to Identify Inhibitors of 5'UTR Stem-Loop Driven Prion Protein mRNA Translation in H4 Neuroglioblastoma Cells. [Related pubchem assays: 1827 (Project Summary), 1813 (Primary HTS)]; assay type: functional
[8] = inhibitors of SNCA 5'UTR-driven reporter translation, confirmation, H4 neuroglioma cells, luminescence (AID 1988); assay type: functional, cell-based
[9] = inhibitors of firefly luciferase expression or activity, dose response, H4 neuroglioma cells, luminescence (AID 1990); assay type: functional, cell-based
cells = assay type: functional
Estrogen receptor = target: T5, Estrogen receptor (Homo sapiens, UniProt P03372);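 note: potency for inhibiting coactivator peptide recruitment to the receptor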
T5 sequence (P03372 whole entry): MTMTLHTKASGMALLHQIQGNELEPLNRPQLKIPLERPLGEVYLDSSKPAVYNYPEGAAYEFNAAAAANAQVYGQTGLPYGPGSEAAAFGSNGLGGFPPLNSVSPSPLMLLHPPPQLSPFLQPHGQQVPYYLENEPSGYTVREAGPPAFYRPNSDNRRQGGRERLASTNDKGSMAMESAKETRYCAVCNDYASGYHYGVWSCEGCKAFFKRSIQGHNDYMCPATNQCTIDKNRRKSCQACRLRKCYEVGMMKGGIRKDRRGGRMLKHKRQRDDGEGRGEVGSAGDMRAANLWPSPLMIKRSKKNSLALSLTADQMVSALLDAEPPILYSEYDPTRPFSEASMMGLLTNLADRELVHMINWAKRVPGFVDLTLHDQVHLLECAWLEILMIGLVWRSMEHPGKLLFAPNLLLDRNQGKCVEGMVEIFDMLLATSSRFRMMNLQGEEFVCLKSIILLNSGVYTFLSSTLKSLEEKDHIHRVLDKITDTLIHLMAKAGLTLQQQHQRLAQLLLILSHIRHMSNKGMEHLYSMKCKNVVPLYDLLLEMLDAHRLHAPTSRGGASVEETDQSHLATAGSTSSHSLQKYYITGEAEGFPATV

Cytochrome P450 1A2 = target: T6, Cytochrome P450 1A2 (Homo sapiens, UniProt P05177);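 note: PubChem cytochrome P450 panel assay, CYP1A2 panel member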
T6 sequence (P05177 whole entry): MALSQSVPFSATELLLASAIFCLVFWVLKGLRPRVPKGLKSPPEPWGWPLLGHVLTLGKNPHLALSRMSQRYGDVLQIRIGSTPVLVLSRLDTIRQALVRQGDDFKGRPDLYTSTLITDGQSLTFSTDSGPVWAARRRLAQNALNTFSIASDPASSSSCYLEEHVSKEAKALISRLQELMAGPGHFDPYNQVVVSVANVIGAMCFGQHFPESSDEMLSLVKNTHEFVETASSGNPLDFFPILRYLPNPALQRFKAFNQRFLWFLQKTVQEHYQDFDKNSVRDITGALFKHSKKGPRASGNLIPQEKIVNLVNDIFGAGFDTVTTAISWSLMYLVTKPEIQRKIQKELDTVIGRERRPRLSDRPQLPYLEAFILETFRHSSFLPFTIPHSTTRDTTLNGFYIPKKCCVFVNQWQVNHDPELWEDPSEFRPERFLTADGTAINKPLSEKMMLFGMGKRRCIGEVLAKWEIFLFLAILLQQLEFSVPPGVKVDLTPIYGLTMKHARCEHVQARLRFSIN

Cytochrome P450 2C9 = Cytochrome P450 2C9 (Homo sapiens, UniProt P11712)
Cytochrome P450 2C9, sequence (P11712 whole entry): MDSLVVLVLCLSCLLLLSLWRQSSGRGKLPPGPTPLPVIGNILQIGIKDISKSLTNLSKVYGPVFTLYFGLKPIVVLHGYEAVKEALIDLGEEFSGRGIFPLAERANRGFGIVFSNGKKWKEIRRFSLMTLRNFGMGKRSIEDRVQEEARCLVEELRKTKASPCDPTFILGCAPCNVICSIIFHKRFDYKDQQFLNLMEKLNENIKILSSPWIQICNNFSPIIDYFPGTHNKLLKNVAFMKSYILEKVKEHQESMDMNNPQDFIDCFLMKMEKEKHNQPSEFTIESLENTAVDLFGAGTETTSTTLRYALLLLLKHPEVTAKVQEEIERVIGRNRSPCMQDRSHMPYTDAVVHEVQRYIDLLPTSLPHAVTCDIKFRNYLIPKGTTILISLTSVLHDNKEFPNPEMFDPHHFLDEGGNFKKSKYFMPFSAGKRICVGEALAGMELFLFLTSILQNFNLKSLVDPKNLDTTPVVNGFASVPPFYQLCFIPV

Induced myeloid leukemia cell differentiation protein Mcl-1, sequence (Q07820 whole entry): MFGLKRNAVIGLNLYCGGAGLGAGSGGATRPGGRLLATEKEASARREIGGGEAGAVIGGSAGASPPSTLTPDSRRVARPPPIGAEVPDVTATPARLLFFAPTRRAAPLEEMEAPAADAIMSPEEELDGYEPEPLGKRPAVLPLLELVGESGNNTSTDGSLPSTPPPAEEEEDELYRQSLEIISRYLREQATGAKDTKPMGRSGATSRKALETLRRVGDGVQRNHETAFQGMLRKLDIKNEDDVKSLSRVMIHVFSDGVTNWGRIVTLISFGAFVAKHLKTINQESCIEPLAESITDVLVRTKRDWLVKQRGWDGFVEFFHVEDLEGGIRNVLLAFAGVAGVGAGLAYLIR
Luciferin 4-monooxygenase, sequence (P08659 whole entry): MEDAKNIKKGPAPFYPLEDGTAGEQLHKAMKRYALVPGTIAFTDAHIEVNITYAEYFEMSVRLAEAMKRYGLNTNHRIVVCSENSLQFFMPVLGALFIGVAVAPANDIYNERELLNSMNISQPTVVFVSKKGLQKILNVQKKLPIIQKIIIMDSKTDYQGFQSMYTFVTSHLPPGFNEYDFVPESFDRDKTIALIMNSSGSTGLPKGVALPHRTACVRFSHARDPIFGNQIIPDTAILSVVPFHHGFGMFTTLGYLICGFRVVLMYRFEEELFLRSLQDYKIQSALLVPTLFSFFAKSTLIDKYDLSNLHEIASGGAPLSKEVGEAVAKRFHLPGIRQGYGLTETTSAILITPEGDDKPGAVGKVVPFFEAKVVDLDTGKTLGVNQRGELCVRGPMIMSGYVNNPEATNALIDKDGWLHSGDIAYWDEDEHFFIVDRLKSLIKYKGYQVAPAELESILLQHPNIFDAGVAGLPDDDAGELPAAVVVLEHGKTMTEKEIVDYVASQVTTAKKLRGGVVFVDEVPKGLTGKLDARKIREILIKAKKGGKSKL

For `CN1CCN(c2ccc(NC(=O)COc3cccc4ccccc34)cc2)CC1`, the EC50 [1] was 2.99 µM (active).
In the case of `O=C1CN(Cc2ccccc2)/C(=N\Cc2ccco2)S1`, the IC50 (Coagulation factor XII) is reported as > 50 µM (inactive).
In the case of `CCOC(=O)c1c(-c2ccc(C)o2)csc1N`, the EC50 [2] is reported as > 112 µM (not active) and the EC50 [3] is reported as > 112 µM (not active).
In the case of `CCOC(=O)C1CCN(c2ncnc3c2cnn3-c2ccc(OC)cc2)CC1`, the IC50 [4] is reported as > 80 µM (inactive).
For `O=C1NC(=O)N(Cc2ccccc2)C(=O)/C1=C\c1ccco1`, the IC50 (Leucine aminopeptidase) was 62.3 µM (active).
With `Cc1ccc(-c2nn3c(C)nnc3c3ccccc23)cc1S(=O)(=O)NC(C)(C)CO` the IC50 [4] was > 80 µM (inactive).
In the case of `COc1ccc(S(=O)(=O)NCC(c2cccnc2)N2CCN(C)CC2)cc1C` (stereo not drawn), the EC50 [2] is reported as > 112 µM (not active) and the EC50 [3] is reported as > 112 µM (not active).
In the case of `O=C(CCl)N1CCN(S(=O)(=O)c2ccc3c(c2)CCC3)CC1`, the AC50 [5] is reported as 20.7 µM (active) and the IC50 [4] is reported as > 80 µM (inactive).
For `CCOc1c(Br)cc(CNc2nc[nH]n2)cc1OC`, the IC50 (Leucine aminopeptidase) was 22.7 µM (active).
With `Cc1ccc(-n2nc(C)cc2NC(=O)COc2cc(C)cc3oc(=O)c4c(c23)CCC4)cc1` the IC50 [6] was < 0.4 µM (not active).
For `Cc1nc2cc(-c3ccccc3)nn2c(C)c1CCC(=O)N1CCC2(CC1)OCCO2`, the EC50 [7] was 14.6 µM (active), the EC50 [8] was 0.259 µM (active) and the EC50 [9] was < 0.1 µM (active). The IC50 [4] was > 80 µM (inactive).
For `NC(=S)n1[nH]c(-c2ccc([N+](=O)[O-])cc2)c(/N=N/c2ccc(O)cc2)c1=O`, the IC50 (cells) was 49.6 µM (active), the IC50 [6] was 3.47 µM (active) and the IC50 (Estrogen receptor) was 11 µM (active).
In the case of `COc1cccc(C(c2sc3nc(C)nn3c2O)N2CCN(c3ccccc3F)CC2)c1` (stereo not drawn), the EC50 [2] is reported as > 112 µM (not active) and the EC50 [3] is reported as > 112 µM (not active).
With `COc1ccc(-c2ccc(C)cc2)cc1[C@H]1[C@H]2C=CC[C@@H](C)[C@@H]2C(=O)N1Cc1ccccc1` the IC50 [4] was > 80 µM (inactive).
In the case of `Cc1ccc(-c2c(C#N)c(N)n(-c3ccccc3)c(=O)c2C#N)cc1`, the EC50 [2] is reported as 3.25 µM (active), the EC50 [3] is reported as > 112 µM (not active) and the AC50 (Cytochrome P450 1A2) is reported as 11.2 µM (inconclusive). For the same molecule, the AC50 (Cytochrome P450 2C9) was 7.94 µM (inconclusive).
For `CC1(C)CC(CCNCc2ccc3c(c2)OCO3)(Cc2ccccc2)CCO1` (stereo not drawn), the EC50 [1] was 6.68 µM (active).
For `N[C@@H](Cc1cc(I)c(Oc2ccc(O)c(I)c2)c(I)c1)C(=O)O` [LIOTHYRONINE SODIUM], the IC50 [6] was 14.7 µM (active).
With `NCCNC(=O)c1c(NC(=O)c2ccccc2)sc2c1CCCC2` the EC50 [1] was 6.68 µM (active).
For `O=C(CSc1nc2ccccc2s1)NC1CCCC1`, the IC50 (Coagulation factor XII) was > 50 µM (inactive).
In the case of `CC(C)(C)SCCNS(=O)(=O)c1ccccc1`, the IC50 (Coagulation factor XII) is reported as > 50 µM (inactive).
In the case of `CCCN(CCC)CCCNC(=O)C1CCC(CNS(=O)(=O)c2cccc3nsnc23)CC1` (stereo not drawn), the EC50 [1] is reported as 0.531 µM (active).
In the case of `O=C(c1cccnc1)C1CCCN(Cc2nc(-c3cnccn3)no2)C1` (stereo not drawn), the IC50 (Coagulation factor XII) is reported as > 50 µM (inactive).
With `Cc1ccc2sc(NC(=O)C3CC3)nc2c1C` the EC50 [2] was > 112 µM (not active) and the EC50 [3] was > 112 µM (not active).
For `O=C1NC(=O)N(Cc2ccco2)C(=O)/C1=C/NC1CC1`, the EC50 [2] was > 112 µM (not active) and the EC50 [3] was > 112 µM (not active).
